Source: patent publication US7285528B2, “Agonists and antagonists of gonadotropin-releasing hormone-2, and use thereof” (priority 2002, dated 2007)
Where a SMILES comes first, the peptide text is derived from it. [ ]: non-standard residue; d: D form. dPhe(4-Cl) = N[C@H](Cc1ccc(Cl)cc1)C(=O)O; d2Nal = N[C@H](Cc1ccc2ccccc2c1)C(=O)O; dCit = NC(=O)NCCC[C@@H](N)C(=O)O; d3Pal = N[C@H](Cc1cccnc1)C(=O)O; pGlu = O=C1CC[C@@H](C(=O)O)N1

Legend:
bfGnRHR-2 = assay: Inhibition of GnRH-2-induced IP production, GH3 cells expressing bfGnRHR-2; type: cell-based, bullfrog; settings: log of IC50 (negative values); half-maximal inhibition of IP production induced by GnRH-2 (1 nM, 10 nM elsewhere in the source)
Experimental: (§1) GH3 cell lines were obtained from the Cell Line Bank at the Cancer Research Center, Seoul National University College of Medicine, located in Seoul, Republic of Korea. The GH3 cell lines were infected with retroviruses comprising genes encoding bfGnRHR-1, bfGnRHR-2, and bfGnRHR-3 which are bullfrog GnRH receptors, and rat GnRHR, and cell lines expressing each of these receptors were obtained. The GH3 cells expressing bfGnRHR-1, bfGnRHR-2, bfGnRHR-3, and rat GnRHR were cultured on 12-well plates. After 24 hours, the cells were cultured again for 24 hours in a media containing no inositol, to which H^3-myoinositol was added. The resultant cells were washed with buffer A (140 mM NaCl, 20 mM HEPES, 4 mM KCl, 8 mM D-Glucose, 1 mM MgCl2, 1 mM CaCl2, 1 mg/ml BSA) and then cultured in buffer A containing 10 mM LiCl at 37°C. for 30 minutes. Thereafter, they were treated with GnRH having a suitable concentration, cultured at 37° C. for another 30 minutes, and then the media was eliminated. The cells were treated with 10 mM of ice-cold formic acid to terminate the reaction, and the cell extracts were mixed with Dowex anionic exchange resins. These resins were washed with distilled water, IP was extracted with 1 M ammonium formate/0.1 M formic acid, and cpm (count per minute) was determined.

bfGnRHR-3 [1] = assay: Inhibition of GnRH-2-induced IP production, GH3 cells expressing bfGnRHR-3; type: cell-based, bullfrog; settings: log of IC50 (negative values); half-maximal inhibition of IP production induced by GnRH-2 (1 nM, 10 nM elsewhere in the source)
Experimental: as §1

Primate GnRH-2 receptor [2] = assay: Inhibition of GnRH-2-induced c-fos-luc luciferase activity, cells expressing Primate GnRH-2 receptor; type: cell-based, Primates; settings: for effect on luciferase activity induced by GnRH-2: GnRH-2 and antagonist treated at the same time
Experimental: Complimentary DNA (cDNA) for a Primate GnRH-2 receptor was obtained from a CV-1 cell genome. […] Plasmids having Primate GnRH-2 receptors where transfected into CV-1 cells. To assay the activity of the receptor, c-fos-luc where a luciferase gene is fused with a c-fos promoter was co-transfected as a probe gene. After 48 hours from transfection, the cells were treated with GnRH-2 agonists and then the activity of luciferase was assayed (Seong et al., Endocrinology vol 144 2003, 454-466). In the same manner as in 2-3 above, Primate GnRH-2 receptors were co-transfected along with c-fos-luc reporter genes, and after 48 hours, GnRH-2 and GnRH-2 antagonists were treated thereinto at the same time and then the effect of GnRH-2 antagonists was observed. […] Log IC50 value by antagonists is an average value of experiments that were conducted independently three times. ND stands for “not detected” which means that there are no inhibitory functions.

bfGnRHR-3 [3] = assay: Ligand-receptor binding assay, I125-GnRH-2 competition, membranes of GH3 cells expressing bfGnRHR-3; design: species or system bullfrog; settings: log of IC50 (negative values); competition with I125-GnRH-2, 4° C., 16 hours
Experimental: To determine the binding affinity between GnRH and GnRH receptors, GnRH-2 was radiolabeled with I^125. The GH3 cells expressing bfGnRHR-1, bfGnRHR-2, bfGnRHR-3, and rat GnRHR constructed in Example 2-3 above were cultured on 100-mm dishes. After 48 hours, the cells were homogenized to obtain cellular membranes, which were then dissolved in binding buffer (40 mM Tris, pH 7.4, 2 mM MgCl2). 20 μg of membrane proteins were reacted with I^125-GnRH-2 at 4° C. for 16 hours. […] After the reaction was completed, 1^125-GnRH-2 bound to the receptors was filtered using a Brandel harvester, and cpm was measured using a γ-counter.
The GH3 cells expressing bfGnRHR-3 obtained from Example 6-1 above were treated with l^125GnRH-2 and GnRH-2 agonists and antagonists at various concentrations to determine the binding affinity of GnRH-2 agonists and antagonists toward the receptors.

Primate GnRH-2 receptor [4] = assay: c-fos-luc luciferase activation by agonists, CV-1 cells expressing Primate GnRH-2 receptor; type: cell-based, Primates; settings: for Log EC50: log of EC50 (negative values), luciferase activation, average of three independent experiments
Experimental: Complimentary DNA (cDNA) for a Primate GnRH-2 receptor was obtained from a CV-1 cell genome. […] Plasmids having Primate GnRH-2 receptors where transfected into CV-1 cells. To assay the activity of the receptor, c-fos-luc where a luciferase gene is fused with a c-fos promoter was co-transfected as a probe gene. After 48 hours from transfection, the cells were treated with GnRH-2 agonists and then the activity of luciferase was assayed (Seong et al., Endocrinology vol 144 2003, 454-466). […] Of the GnRH-2 receptors, [[…]]GnRH-2 performed excellently, showing effects about 3 times that of a wild-type ligand, GnRH-2. […] When analogs where the 5th, 7th, and 8th amino acids of [[…]]GnRH-2 are substituted were used, it was observed that their effects were weaker than [[…]]GnRH-2, and therefore it can be seen that it is important to maintain His, Trp, and Tyr that are found at the 5th, 7th, and 8th positions of GnRH-2 as they are (FIG. 3b). Log EC50 values and Emax values of GnRH-2 agonists are average values of experiments that were conducted independently three times. Ratio^a represents the ratio of EC50 values of other GnRH analogs based on EC50 values of GnRH-2.

| Molecule | effect on luciferase activity induced by GnRH-2 (Primate GnRH-2 receptor [2]) | Log EC50 (Primate GnRH-2 receptor [4]) | also measured |
| --- | --- | --- | --- |
| CC(=O)N[C@H](Cc1ccc2ccccc2c1)C(=O)N[C@H](Cc1ccc(Cl)cc1)C(=O)N[C@H](Cc1cccnc1)C(=O)N[C@@H](CO)C(=O)N[C@@H](Cc1ccc(O)cc1)C(=O)N[C@H](CCCNC(N)=O)C(=O)N[C@@H](CC(C)C)C(=O)N[C@@H](CCCNC(=N)N)C(=O)N1CCC[C@H]1C(=O)N[C@H](C)C(N)=O [Cetrorelix, Ac-D-2Nal-(4Cl)-D-Phe-D-3Pal-Ser-Tyr-D-Cit-Leu-Arg-Pro-D-Ala-NH2, reference compound] (Ac-[d2Nal][dPhe(4-Cl)][d3Pal]SY[dCit]LRP[dA]-NH2) | no effect | – | Log IC50 (bfGnRHR-2): −6.43 ± 0.11; Log IC50 (bfGnRHR-3 [1]): −6.28 ± 0.13; Binding affinity (log IC50 value) (bfGnRHR-3 [3]): −7.11 ± 0.08 |
| CC(=O)N[C@H](Cc1ccc2ccccc2c1)C(=O)N[C@H](Cc1ccc(Cl)cc1)C(=O)N[C@H](Cc1cccnc1)C(=O)N[C@@H](CO)C(=O)N[C@@H](Cc1c[nH]cn1)C(=O)N[C@H](CCCNC(N)=O)C(=O)N[C@@H](Cc1c[nH]c2ccccc12)C(=O)N[C@@H](Cc1ccc(O)cc1)C(=O)N1CCC[C@H]1C(=O)N[C@H](C)C(N)=O [Trptorelix-2, Ac-D2Nal-(4Cl)D-Phe-D-3Pal-Ser-His-DCit-Trp-Tyr-Pro-DAla-NH2] (Ac-[d2Nal][dPhe(4-Cl)][d3Pal]SH[dCit]WYP[dA]-NH2) | reduced in a concentration-dependent manner | – | Log IC50 (Primate GnRH-2 receptor [2]; log of IC50 (negative values), reporter c-fos-luc, GnRH-2-induced luciferase, average of three experiments, ND = not detected, no inhibitory functions): −6.19 ± 0.12 |
| Ac-D2Nal-(4Cl)D-Phe-D-3Pal-Ser-Tyr-DCit-Trp-Leu-Pro-DAla-NH2 (Ac-[d2Nal][dPhe(4-Cl)][d3Pal]SY[dCit]WLP[dA]-NH2; SMILES CC(=O)N[C@H](Cc1ccc2ccccc2c1)C(=O)N[C@H](Cc1ccc(Cl)cc1)C(=O)N[C@H](Cc1cccnc1)C(=O)N[C@@H](CO)C(=O)N[C@@H](Cc1ccc(O)cc1)C(=O)N[C@H](CCCNC(N)=O)C(=O)N[C@@H](Cc1c[nH]c2ccccc12)C(=O)N[C@@H](CC(C)C)C(=O)N1CCC[C@H]1C(=O)N[C@H](C)C(N)=O) [Trptorelix-3] | no effect | – | – |
| [D-Ala^6]GnRH-1: the agonist of GnRH-1 | – | −6.38 ± 0.10 | effect / sensitivity in luciferase activation (Primate GnRH-2 receptor [4]; compared with GnRH-2 or [D-Ala^6]GnRH-2): very low sensitivity as compared with GnRH-2 |
| p-Glu-His-Trp-Ser-His-D-Lys-Trp-Tyr-Pro-Gly-NH2 ([pGlu]HWSH[dK]WYPG-NH2; SMILES NCCCC[C@@H](NC(=O)[C@H](Cc1c[nH]cn1)NC(=O)[C@H](CO)NC(=O)[C@H](Cc1c[nH]c2ccccc12)NC(=O)[C@H](Cc1c[nH]cn1)NC(=O)[C@@H]1CCC(=O)N1)C(=O)N[C@@H](Cc1c[nH]c2ccccc12)C(=O)N[C@@H](Cc1ccc(O)cc1)C(=O)N1CCC[C@H]1C(=O)NCC(N)=O) [[D-Lys^6]GnRH-2] | – | −8.57 ± 0.11 | – |
| pGlu-His-Trp-Ser-His-D-Ala-Leu-Tyr-Pro-Gly-NH2 ([pGlu]HWSH[dA]LYPG-NH2; SMILES CC(C)C[C@H](NC(=O)[C@@H](C)NC(=O)[C@H](Cc1c[nH]cn1)NC(=O)[C@H](CO)NC(=O)[C@H](Cc1c[nH]c2ccccc12)NC(=O)[C@H](Cc1c[nH]cn1)NC(=O)[C@@H]1CCC(=O)N1)C(=O)N[C@@H](Cc1ccc(O)cc1)C(=O)N1CCC[C@H]1C(=O)NCC(N)=O) [[D-Ala^6, Leu^7]GnRH-2] | – | −7.95 ± 0.10 | – |
| pGlu-His-Trp-Ser-His-D-Ala-Tyr-Trp-Pro-Gly-NH2 ([pGlu]HWSH[dA]YWPG-NH2; SMILES C[C@@H](NC(=O)[C@H](Cc1c[nH]cn1)NC(=O)[C@H](CO)NC(=O)[C@H](Cc1c[nH]c2ccccc12)NC(=O)[C@H](Cc1c[nH]cn1)NC(=O)[C@@H]1CCC(=O)N1)C(=O)N[C@@H](Cc1ccc(O)cc1)C(=O)N[C@@H](Cc1c[nH]c2ccccc12)C(=O)N1CCC[C@H]1C(=O)NCC(N)=O) [[D-Ala^6, Tyr^7, Trp^8]GnRH-2] | – | −7.57 ± 0.13 | – |
| pGlu-His-Trp-Ser-Leu-D-Ala-Trp-Tyr-Pro-Gly-NH2 ([pGlu]HWSL[dA]WYPG-NH2; SMILES CC(C)C[C@H](NC(=O)[C@H](CO)NC(=O)[C@H](Cc1c[nH]c2ccccc12)NC(=O)[C@H](Cc1c[nH]cn1)NC(=O)[C@@H]1CCC(=O)N1)C(=O)N[C@H](C)C(=O)N[C@@H](Cc1c[nH]c2ccccc12)C(=O)N[C@@H](Cc1ccc(O)cc1)C(=O)N1CCC[C@H]1C(=O)NCC(N)=O) [[Leu^5, D-Ala^6]GnRH-2] | – | −7.35 ± 0.12 | – |
| pGlu-His-Trp-Ser-Tyr-D-Ala-Trp-Leu-Pro-Gly-NH2 ([pGlu]HWSY[dA]WLPG-NH2; SMILES CC(C)C[C@H](NC(=O)[C@H](Cc1c[nH]c2ccccc12)NC(=O)[C@@H](C)NC(=O)[C@H](Cc1ccc(O)cc1)NC(=O)[C@H](CO)NC(=O)[C@H](Cc1c[nH]c2ccccc12)NC(=O)[C@H](Cc1c[nH]cn1)NC(=O)[C@@H]1CCC(=O)N1)C(=O)N1CCC[C@H]1C(=O)NCC(N)=O) [[Tyr^5, D-Ala^6, Leu^8]GnRH-2] | – | −7.90 ± 0.24 | – |
